Results taken from ChEMBL document CHEMBL1201862, “PubChem BioAssay data set” (2004).
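Each compound was tested at five concentrations against cells in 96-well plates for 48 hours. The concentration for 50% growth inhibition is given as GI50.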 The source made the active and inactive calls. Cut-off read from the data, not from the text of the source: active = GI50 up to about 1.1 µM and inactive = higher.

Columns and labels:
Assay in all cases: inhibition of tumour cell growth, NCI panel, 48 h
DLD-1 = system: DLD-1
LXFL 529 = system: LXFL 529
SNB-78 = system: SNB-78
RXF 631 = system: RXF 631
XF498 = system: XF498
HOP-18 = system: HOP-18
M19-MEL = system: M19-MEL

Measured: GI50

COc1cc(Nc2nc3cc(C(F)(F)F)ccc3nc2-c2ccccc2)cc(OC)c1OC
inactive: DLD-1 > 100 µM | LXFL 529 > 100 µM | SNB-78 46.2 µM | RXF 631 61.8 µM | XF498 32.5 µM

Cc1c2ncccc2c(C)c2c1[nH]c1ccccc12
inactive: DLD-1 10.1 µM | LXFL 529 11 µM | SNB-78 14.6 µM | HOP-18 14.2 µM | M19-MEL 13.4 µM | XF498 12.8 µM

S=C1OC2CCCC[C@H]2O1 (some centres not stated)
inactive: DLD-1 > 100 µM | LXFL 529 > 100 µM | SNB-78 > 100 µM | HOP-18 > 100 µM | M19-MEL > 100 µM | RXF 631 > 100 µM | XF498 > 100 µM

CN(C)CC1CCCC/C1=N/OC(=O)c1ccc(Cl)c(Cl)c1 (configuration not stated)
inactive: DLD-1 > 100 µM | LXFL 529 > 100 µM | HOP-18 > 100 µM | M19-MEL > 100 µM | RXF 631 > 100 µM

CCCCCCCCCCCCCCCCc1c(C(=O)OC)[nH]c(=S)[nH]c1=O
inactive: DLD-1 > 50 µM | LXFL 529 > 50 µM | SNB-78 > 50 µM | HOP-18 > 50 µM | M19-MEL > 50 µM | RXF 631 > 50 µM | XF498 > 50 µM

O=Cc1cc2sc(C=O)cc2s1
inactive: DLD-1 > 100 µM | LXFL 529 > 100 µM | SNB-78 > 100 µM | M19-MEL > 100 µM | RXF 631 > 100 µM | XF498 > 100 µM

CC1=NC(C(C)C)C(=O)O1 (configuration not stated)
inactive: DLD-1 56.2 µM | LXFL 529 > 100 µM | SNB-78 > 100 µM | HOP-18 > 100 µM | M19-MEL > 100 µM | RXF 631 > 100 µM | XF498 > 100 µM

O=C(O)C(CS)Nc1c2ccccc2[n+]([O-])c2ccccc12 (configuration not stated)
inactive: DLD-1 95.9 µM | LXFL 529 53.7 µM | SNB-78 > 100 µM | HOP-18 > 100 µM | M19-MEL > 100 µM | RXF 631 > 100 µM

CN(C)CCC(CCN(C)C)=NO
inactive: DLD-1 > 100 µM | LXFL 529 > 100 µM | SNB-78 > 100 µM | HOP-18 > 100 µM | M19-MEL > 100 µM | RXF 631 > 100 µM

CN(C)CC(=O)N1CCc2c([nH]c3ccccc23)C1c1cccnc1 (configuration not stated)
inactive: DLD-1 > 100 µM | LXFL 529 > 100 µM | SNB-78 > 100 µM | HOP-18 > 100 µM | M19-MEL > 100 µM | RXF 631 > 100 µM | XF498 > 100 µM

CCCCCCCC/C=C1\CCC(CN(C)C)C1=O (configuration not stated)
inactive: DLD-1 2.16 µM | LXFL 529 1.61 µM | SNB-78 7.45 µM | HOP-18 19.5 µM | M19-MEL 3.36 µM | RXF 631 5.64 µM | XF498 6.22 µM

O=S(O)CCCCSSCc1ccccc1CSSCCCCS(=O)O
inactive: DLD-1 24.6 µM | LXFL 529 11.4 µM | HOP-18 14.7 µM | M19-MEL 4.65 µM | RXF 631 23.1 µM | XF498 12 µM

C=C[C@@]1(C)CCC2(O)C(CCC3C2(C)CCC[C@@]3(C)COC(=O)CC(=O)OC)C1 (some centres not stated)
inactive: DLD-1 17.4 µM | LXFL 529 17.3 µM | SNB-78 26.1 µM | RXF 631 19.1 µM | XF498 21.6 µM

C=C1C(=O)O[C@H]2[C@H]1[C@H](OC(=O)/C(C)=C\C)CC(=C)[C@@H]1[C@H](O)[C@H]3O[C@@]3(C)[C@@]12O [EUPATUNDIN]
inactive: DLD-1 > 100 µM | LXFL 529 > 100 µM | SNB-78 > 100 µM | HOP-18 > 100 µM | M19-MEL > 100 µM | RXF 631 > 100 µM | XF498 > 100 µM
